Columns and labels:
[1] = system: isolated gastric fundic gland; test: CAP: Acid Secretion Inhibition Test in vitro ([^14 C]-aminopyrine uptake); assay type: cell-based, male Japanese White rabbit; conditions: Oryctolagus cuniculus, rabbit isolated gastric fundic gland, 10^-5 M, histamine 10^-5 M; read-out: CAP: Acid secretion inhibitory rate
Experimental: CAP: Acid Secretion Inhibition Test in vitro (i) Meaning The acid secretion inhibitory activity in a cell level is studied. It can also be used for studying the mechanism of the effect. (ii) Method (ii)-(a) Preparation of isolated gastric gland suspension First, an isolated gastric fundic gland sample was prepared. Namely, a male Japanese White rabbit (2.5 to 3 kg) was anesthetized to death with Nembutal™ and then the abdomen was incised. Immediately thereafter, the stomach was removed and, after its pyloric and cardiac antrum were severed, incised along its greater curvature into two sheets. The gastric contents adhering to the mucosal surface was washed out with ice-cooled PBS (-) and then carefully washed therein. The gastric wall was spread on a cork board with its mucosal surface facing up and the feed and mucus thereon were completely removed with sterile gauze. The mucosa was separated therefrom by a spatula and then collected in ice-cooled PBS (-). After being washed twice with PBS (-), the mucosa was minced into 2-3 mm^3 pieces by scissors. These pieces were further washed twice with a nutrient solution. The nutrient solution comprises 132.4 mM of NaCl, 5.4 mM of KCl, 5 mM of Na2 HPO4 ·12H2 O, 1 mM of NaH2 PO4 ·2H2 O, 1.2 mM of MgSO4, 1 mM of CaCl2, 25 mM of HEPES, 2 mg/ml of glucose, and 1 mg/ml of BSA. Into 70 ml of the nutrient solution containing 1 mg/ml of collagenase, minced mucosal pieces were dispersed and intensely stirred in a conical flask with a stirrer at 37° C. for 40 to 60 minutes. […] The nutrient solution was added to the reaction solution so as to attain the total amount of about 200 ml. After being filtered through a mesh, the suspension was divisionally introduced into 50 ml centrifuge tubes and left for 15 minutes such that gastric fundic gland was deposited. The supernatant was repeatedly removed by an aspirator, dispersed in the nutrient solution, and then left such that the gastric fundic gland was washed three times. At this time, without using a pipette, the suspension was alternately introduced into two centrifuge tubes so as to effect dispersion. The number of cells was counted under microscope and adjusted to 1.6×10^6 cells/ml. (ii)-(b) [^14 C]-aminopyrine uptake test Then [^14 C]-aminopyrine uptake test was performed. After an Eppendorf tube was weighed, 10 μl (final concentration: 10^-5 M) of histamine dissolved in the above-mentioned nutrient solution, 10 μl (final concentration: 10 ^-5 M) of the test compound dissolved in DMSO, and 10 μl (final concentration: 0.05 μCi/ml) of [^14 C]-aminopyrine diluted with the nutrient solution were introduced therein and then 970 μl of the isolated gastric fundic gland suspension prepared above were added thereto. Subsequently, this mixture was shaken at 37° C. for 40 minutes at 125 cycles/minute. After being centrifuged for 30 minutes 200 μl of its supernatant was collected into a mini-vial, while the rest was removed by an aspirator. The gland pellet was completely dried as the tube with its lid being opened was kept for one night in a drying oven at 80° C. and then the weight was determined at room temperature. Then 100 μl of 1N KOH was added thereto an the tube with its lid being closed was treated at 60° C. for 1 to 2 hours so as to dissolve the pellet. Then, the contents thereof were transferred to a mini-vial. Into the mini-vial containing the supernatant or gland pellet, 4 ml of Atomlite™ was added and then the radioactivity was measured by a liquid scintillation counter. Here, after the radioactivity of the gland pellet was corrected by using a sample in which 20 mM of NaSCN was added so as to cancel the hydrogen ion concentration gradient, the integration ratio of aminopyrine specifically trapped by the gland pellet was calculated. This experiment was performed in duplicate. (ii)-(c) Calculation of the accumulation rate of aminopyrine Here, its principle will be briefly explained. […]

stress ulcer formation = test: WIS: Restraint and Water Immersion Stress-Induced Ulcer Inhibition Test; assay type: in vivo, Male Crj:SD or Slc:SD rats; conditions: rat, 100 mg/kg orally, 7 hours water immersion stress
Experimental: WIS: Restraint and Water Immersion Stress-Induced Ulcer Inhibition Test (i) Meaning The degree of inhibition of the stress ulcer formation is tested. (ii) Method Male Crj:SD or Slc:SD rats (6 to 7-weeek-old) were fasted overnight, but allowed free access to water. Each group has 5 to 8 of these rats. The sample compound was dissolved or suspended in an aqueous solution of 0.3% sodium carboxymethylcellulose or 0.05% Tween 80 and then was orally administered (100 mg/10 ml/kg). To a control group, the vehicle was administered. 10 minutes later, the rats were placed in a stress cage and immersed to the level of xiphoid process in a water bath (21° C.) for 7 hours. At the end of the stress, the rats were sacrificed by inhalation of ether or carbon dioxide. Then, the stomach of each was removed, inflated by injecting 10 ml of 5% formalin neutral buffer solution, and immersed in 1% formalin neutral buffer solution for 30 minutes or more to be fixed. The stomach was incised along the greater curvature and then the length of each erosion in the glandular portion was determined under dissecting microscope. The sum of the length of erosions per stomach was defined as ulcer index (UI). (iii) Judgment Standard […]

CCSc1nnc(NC(=O)c2ccc(OC/C=C(\C)CCC=C(C)C)cc2)s1 [Example 15, 2-(4-geranyloxybenzoyl)amino-5-ethylthio-1,3,4-thiadiazole]
inhibition at 10 µM [1]: 17% | WIS: ulcer formation inhibitory rate (stress ulcer formation): 43%

CC(C)c1ccc(C(=O)Nc2nnc(SCCN(C(C)C)C(C)C)s2)cc1 [Example 2, 2-(4-isopropylbenzoyl)amino-5-diisopropylaminoethylthio-1,3,4-thiadiazole]
inhibition at 10 µM [1]: 100% | WIS: ulcer formation inhibitory rate (stress ulcer formation): 80%

CCN(CC)CCSc1nnc(NC(=O)c2ccc(OC/C=C(\C)CCC=C(C)C)cc2)s1 [Example 10, 2-(4-geranyloxybenzoyl)amino-5-diethylaminoethylthio-1,3,4-thiadiazole]
inhibition at 10 µM [1]: 100% | WIS: ulcer formation inhibitory rate (stress ulcer formation): 48%

CC(C)=CCC/C(C)=C/COc1ccc(C(=O)Nc2nnc(SCc3ccccn3)s2)cc1 [Example 14, 2-(4-geranyloxybenzoyl)amino-5-(2-pyridylmethyl)thio-1,3,4-thiadiazole]
inhibition at 10 µM [1]: 45% | WIS: ulcer formation inhibitory rate (stress ulcer formation): 30%

CCN(CC)CCSc1nnc(NC(=O)c2ccc(C(C)(C)C)cc2)s1 [Example 4, 2-(4-tert-butylbenzoyl)amino-5-diethylaminoethylthio-1,3,4-thiadiazole]
inhibition at 10 µM [1]: 100% | WIS: ulcer formation inhibitory rate (stress ulcer formation): 79%

CCN(CC)CCSc1nnc(NC(=O)c2ccc(C(C)C)cc2)s1 [Example 1, 2-(4-isopropylbenzoyl)amino-5-diethylaminoethylthio-1,3,4-thiadiazole]
inhibition at 10 µM [1]: 101% | WIS: ulcer formation inhibitory rate (stress ulcer formation): 83%

CC(C)=CCC/C(C)=C/COc1ccc(C(=O)Nc2nnc(SCCN3CCCCC3)s2)cc1 [Example 12, 2-(4-geranyloxybenzoyl)amino-5-piperidinoethylthio-1,3,4-thiadiazole]
inhibition at 10 µM [1]: 99% | WIS: ulcer formation inhibitory rate (stress ulcer formation): 44%
